Laboratory results published in US9416118B2, “Docosahexaenoyl ethanolamides” (The Brigham and Women's Hospital, Inc., priority 2011, dated 2016).
“Also recorded” adds a separate entry of the source. Like-named read-outs stand apart in the source and are kept apart here.

Experiments:
[1] = target: T1, CB1 receptor (Homo sapiens, UniProt P21554); experiment: CB1 beta-arrestin receptor activation; type: cell-based; set-up: expressed in transfected cells; host or cells: HEK cells; conditions: HEK cells overexpressing CB1, beta-arrestin system
Procedure: (§1) FIG. 4. […] Ligand receptor interactions were determined by increases in chemiluminescence generated upon interaction of the EA labeled beta arrestin with the Pro-Link tagged receptor (see Methods). […] See text for more details.
(§2) To this end, recombinant human CB receptors were overexpressed in a beta-arrestin system as described in Experimental Procedures.

[2] = system: mouse ischemia reperfusion second organ lung injury; experiment: Hind limb ischemia / second organ lung reperfusion injury; type: in vivo
Procedure: Supplemental FIG. 4. 15-HEDPEA is protective in mouse ischemia reperfusion second organ lung injury. Mice were subjected to hind limb ischemia for 1 hr using tourniquets. 15-HEDPEA was intravenously administered 5 min before tourniquet removal. After 2 hr reperfusion, mouse lungs were harvested and the tissue levels of myeloperoxidase (MPO) were determined using a mouse MPO ELISA. Results are expressed as reduction in lung associated decrease in leukocyte myeloperoxidase values (n=3-6).
Murine hind limb vascular occlusion second organ lung reperfusion injury was performed using 6- to 8-week-old FVB male mice and carried out as in (24).

[3] = system: human PMN; experiment: Microfluidic chamber screening of PMN chemotaxis in an IL-8 gradient; type: cell-based
Procedure: The fabrication and surface modification of the microfluidic devices were prepared as in refs. (9,22). Whole blood (5-10 μl) diluted in HBSS (1:10, v/v) was introduced into the chemotaxis chamber via a cell inlet and neutrophils were captured along the chamber via P-selectin tethering. Next, the transversal gradient of IL-8 (0-10 nM) was introduced to the chemotaxis chamber. After fifteen minutes, novel DHEA metabolites (at a uniform concentration) were introduced to the chemotaxis chamber from the second gradient generator network, and 10 nM IL-8 gradient was maintained Single-cell neutrophil chemotaxis was recorded using microscopy (Nikon, Eclipse E600) equipped with a video camera (Diagnostic, RT Slider) and subject to analysis using ImageJ software (9).
In parallel to structure elucidation, chemotactic screening of HPLC isolated DHEA metabolites obtained from mouse brain was carried out utilizing microfluidic chamber (FIG. 1c). After IL-8 (0-10 nM gradient) was introduced to the main channel of the microfluidic device, P-selectin tethered leukocytes rapidly migrated along the IL-8 chemotactic gradient at an average rate of 2.3 μm/min. After 15 min, the mixture of metabolites was infused into the microfluidic main channel while an IL-8 (0-10 nM) gradient was maintained (FIG. 1c, left panel). […] This decrease in chemotaxic velocity was maintained even after the gradient was switched back to IL-8.
HPLC isolated dioxygenated DHEA products were individually screened for direct PMN actions using microfluidic chambers.

[4] = system: platelet-leukocyte aggregates; experiment: PAF-stimulated platelet-leukocyte aggregate formation in whole blood (overall statements); type: cell-based; conditions: human whole blood, 100 nM PAF, 0.01-100 nM dose range
Procedure: (§3) FIG. 5. […] Human whole blood stimulated with PAF (100 nM) was incubated with 10,17-diHDHEA, 15-HEDPEA or DHEA for 30 min, 37° C. The incubation was stopped via ice-cold RBC lysis buffer. The majority of RBCs were removed and remaining cells were labeled. Platelet-leukocyte aggregate formation or P-selectin mobilization was analyzed using FACS (see Methods). Dose response inhibition of a) platelet-monocyte aggregate formation, b) representative dot plot of platelet-monocyte aggregates, c) platelet-PMN aggregate formation, d) platelet P-selectin mobilization, with indicated products. (diamonds 10,17-diHDHEA; triangles 15-HEDPEA; squares DHEA). Results are mean±SEM of n=5-6 donors. P<0.05 compared to vehicle treatment.
(§4) Whole blood was incubated with either vehicle, HPLC isolated 10,17-diHDHEA or 15-HEDPEA (0.01-100 nM) for 15 min at 37° C. with intermittent mixing. Vehicle or PAF (100 nM, PAF C-16, Cayman Chemical, Ann Arbor, Mich.) was added for another 30 min at 37° C. with intermittent mixing. Incubation was stopped by ice-cold red blood cell lysis buffer (10 min at 4° C.). Cells were collected using centrifugation (210 g, 5 min, 4° C.) then fixed with 3% formalin (15 min, 4° C.). Cells were stained with FITC-anti-human CD41 (1:100, v/v) and PE-anti-human-CD62P (1:100, v/v) for 20 min at 4° C., and were analyzed using a flow cytometry and Cell Quest software as in (23). Cellular composition within whole blood was determined by forward and side scattering as well as cell-specific markers, anti-human-CD41 for platelets, anti-human-CD14 for monocytes and anti-human-CD16 for neutrophils.

[5] = target: T2, human CB2 receptor (Homo sapiens, UniProt P34972); experiment: CB2 beta-arrestin receptor activation (PathHunter chemiluminescence); type: cell-based
Procedure: as §1
(§5) Receptor activation with the CB2 beta arrestin system was carried out essentially as in (20,21). HEK cells stably overexpressing human CB2 receptor tagged with Pro-Link and EA labeled beta-arrestin (Discoverx, Fremont Calif.) were plated at 20,000 cells/well of a 96 well plate. […] Ligand receptor interaction was determined by measuring chemiluminescence using the Pathhunter EFC detection kit (Discoverx, Fremont, Calif.), generated upon coupling of the EA labeled beta arrestin with the Pro-Link tagged receptor, with a plate reader (Envision, Perkin Elmer, Santa Clara, Calif.).
as §2

[6] = system: platelet-monocyte aggregates; experiment: PAF-stimulated platelet-monocyte aggregate formation in whole blood; type: cell-based, human; conditions: 100 nM PAF; for Decrease of platelet-monocyte aggregate formation: 10 pM compound, human whole blood
Procedure: as §3, §4

[7] = target: T2, human CB2 receptor; experiment: AM630 inhibition of ligand-stimulated activation of cells over-expressing CB2; type: cell-based
Procedure: as §1, §5, §2

[8] = target: T1, CB1 receptor; conditions: from reference 31; read-out: Ki, affinity to CB1 receptor; cited from earlier work
[9] = system: platelet-PMN aggregates; experiment: PAF-stimulated platelet-PMN aggregate formation in whole blood; type: cell-based, human; conditions: 100 nM PAF
Procedure: as §3
(§6) Whole blood was incubated with either vehicle, HPLC isolated 10,17-diHDHEA or 15-HEDPEA (0.01-100 nM) for 15 min at 37° C. with intermittent mixing. […] Cells were stained with FITC-anti-human CD41 (1:100, v/v) and PE-anti-human-CD62P (1:100, v/v) for 20 min at 4° C., and were analyzed using a flow cytometry and Cell Quest software as in (23). Cellular composition within whole blood was determined by forward and side scattering as well as cell-specific markers, anti-human-CD41 for platelets, anti-human-CD14 for monocytes and anti-human-CD16 for neutrophils.

[10] = system: platelet P-selectin; experiment: Platelet P-selectin surface expression in PAF-stimulated whole blood; type: cell-based, human; conditions: 10 pM to 100 nM
Procedure: as §3, §6

[11] = 10 nM compound, 0-10 nM IL-8 gradient
[12] = HEK cells overexpressing human CB2, beta-arrestin system, 1 h, 37° C., 1 pM to 100 nM, read-out: EC50 for activation of CB2

T2 sequence (P34972 whole entry): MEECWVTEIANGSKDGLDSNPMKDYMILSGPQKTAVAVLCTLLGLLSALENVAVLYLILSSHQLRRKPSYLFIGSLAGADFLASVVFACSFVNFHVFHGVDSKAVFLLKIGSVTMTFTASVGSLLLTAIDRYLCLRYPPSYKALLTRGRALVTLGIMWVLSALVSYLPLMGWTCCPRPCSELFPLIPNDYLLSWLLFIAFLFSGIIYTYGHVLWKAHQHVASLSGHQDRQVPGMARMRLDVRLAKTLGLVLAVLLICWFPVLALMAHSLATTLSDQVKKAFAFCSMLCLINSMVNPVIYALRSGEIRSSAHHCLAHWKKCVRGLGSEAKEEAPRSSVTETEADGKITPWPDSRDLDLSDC
T1 sequence (P21554 whole entry): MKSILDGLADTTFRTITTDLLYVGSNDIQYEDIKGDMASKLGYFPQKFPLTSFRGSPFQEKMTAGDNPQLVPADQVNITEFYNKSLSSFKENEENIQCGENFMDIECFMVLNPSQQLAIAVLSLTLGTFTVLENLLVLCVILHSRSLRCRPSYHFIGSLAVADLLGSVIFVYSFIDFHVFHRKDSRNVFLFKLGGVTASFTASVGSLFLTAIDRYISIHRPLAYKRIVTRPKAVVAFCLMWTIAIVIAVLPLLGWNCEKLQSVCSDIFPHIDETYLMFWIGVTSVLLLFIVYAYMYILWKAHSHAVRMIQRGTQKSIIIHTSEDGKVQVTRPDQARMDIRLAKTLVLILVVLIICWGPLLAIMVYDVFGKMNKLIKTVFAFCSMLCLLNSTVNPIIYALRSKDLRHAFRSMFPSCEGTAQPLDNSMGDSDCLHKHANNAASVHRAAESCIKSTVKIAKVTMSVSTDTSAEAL

SMILES: CC/C=C\CC1OC1C(O)/C=C\C/C=C\C/C=C\C/C=C\CCC(=O)NCCO (centres unmarked) [15-HEDPEA, 15-hydroxy-16(17)-epoxydocosa-4Z,7Z,10Z,13Z,19Z-pentaenoylethanolamide]
- Activation of CB1 receptors (in words) [1]: activated CB1 receptors but required much higher concentrations
- Reduction of lung PMN infiltration (MPO) compared to vehicle ([2]; 1 μg/mouse intravenously, 1 h ischemia, 2 h reperfusion): ~50%
- Organ protection (in words) ([2]; mouse reperfusion second organ injury, 1 μg/mouse): organ protective
- Effect on PMN chemotaxis (in words) [3, 11]: effectively stopped PMN chemotaxis; also recorded: stopped further PMN migration
- Time after which further PMN migration stopped ([3]; 10 nM compound, IL-8 gradient): ~4 min
- Effect on platelet-leukocyte aggregate formation (in words) [4]: block PAF-stimulated platelet-leukocyte aggregate formation; also recorded: prevented formation of platelet-leukocyte aggregates
- EC50 [5, 12]: 0.1 nM
- Decrease of platelet-monocyte aggregate formation [6]: ~30%

SMILES: CC/C=C\C[C@H](O)/C=C/C=C\C/C=C\C=C\[C@H](O)C/C=C\CCC(=O)NCCO [7,17-diHDHEA, 7,17-dihydroxydocosa-4Z,8E,10Z,13Z,15,19Z-hexaenoylethanolamide]
- Effect on PMN chemotaxis (in words) [3, 11]: did not significantly regulate chemotaxis

SMILES: COc1ccc(C(=O)c2c(C)n(CCN3CCOCC3)c3cc(I)ccc23)cc1 [AM630]
- AM630 inhibition of CB2 activation stimulated with 15-HEDPEA ([7]; 15-HEDPEA 10 nM): inhibited activation
- AM630 inhibition of CB2 activation stimulated with AEA ([7]; AEA 10 nM, positive control): inhibited activation
- AM630 inhibition of CB2 interaction with 10,17-diHDHEA ([7]; at higher concentration, n=3, data not shown): inhibited GPCR CB2 interaction

SMILES: CC/C=C\C[C@H](O)/C=C/C=C\C/C=C\C/C=C\C=C\[C@H](O)CCC(=O)NCCO [4,17-diHDHEA, 4,17-dihydroxydocosa-5,7Z,10Z,13Z,15,19Z-hexaenoylethanolamide]
- Effect on PMN chemotaxis (in words) [3, 11]: did not significantly regulate chemotaxis

SMILES: CCC=CCC=CCC=CCC=CCC=CCC=CCCC(=O)NCCO [DHEA, docosahexaenoylethanolamide, reference compound]
- Ki [8]: 324 nM
- Effect on platelet-leukocyte aggregate formation (in words) [4]: did not significantly inhibit; also recorded: not active
- EC50 [5]: 9.8 nM

SMILES: CC/C=C\C[C@H](O)/C=C/C=C\C=C\[C@H](O)C/C=C\C/C=C\CCC(=O)NCCO (single isomer, unassigned) [10,17-diHDHEA, 10,17-dihydroxydocosa-4Z,7Z,11,13Z,15,19Z-hexaenoylethanolamide]
- Activation of CB1 receptors (in words) [1]: activated CB1 receptors but required much higher concentrations
- Decrease of platelet-PMN aggregates ([9]; human whole blood): 25%-35%
- Inhibition of PMN-platelet aggregate formation (in words) ([9]; concentrations as low as 10 pM): inhibited
- Effect on PMN chemotaxis (in words) [3, 11]: did not significantly regulate chemotaxis
- Effect on PMN chemotaxis (in words) ([3]; 10 μM compound, IL-8 gradient): rapidly stopped PMN chemotaxis
- Effect on P-selectin surface expression of platelets (in words) [10]: blocked P-selectin surface expression
- Effect on P-selectin surface expression of platelets (in words) ([10]; listed as 10,17-diHDEA): inhibited
- Effect on platelet-leukocyte aggregate formation (in words) [4]: prevented formation of platelet-leukocyte aggregates
- Effect on platelet-leukocyte aggregate formation (in words) ([4]; listed as 10,17S-diHDHEA): block PAF-stimulated platelet-leukocyte aggregate formation
- EC50 [5, 12]: 0.39 nM
- Decrease of platelet-monocyte aggregate formation [6]: ~30%
- Maximum reduction of platelet-monocyte aggregate formation ([6]; 100 pM compound, bell-shaped dose response): ~40%

SMILES: CCCCC[C@H](O)/C=C/C=C\C/C=C\C/C=C\CCCC(=O)NCCO [15(S)-HAEA, 15(S)-HETE ethanolamide, reference compound]
- Stimulation of CB2 receptors (in words) ([5]; beta-arrestin system, tested dose range 1 pM to 100 nM): did not stimulate CB2 receptors
